Reference: PubChem BioAssay AID1918996 (Molecular Pharmacology Branch, DTP, NCI, 2023)
pIC50: −log10 of the molar value. “And” between values parts separate entries of the source, which are not always exact repeats. Equal values may be shown once.

System: 349418-098-R-PDC complex spheroid growth
Assay: Anticancer human tumor 349418-098-R-PDC patient-derived lung adenocarcinoma cell line growth inhibition [AhR]
Conditions: for viability, T/C: stronger effect = lower value
Method in brief: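 Agents were dosed in half-log steps down from roughly clinical Cmax, or from 10 microM where Cmax was unknown, alone and with AhR antagonists. Read-out: percent test/control growth of tumor spheroids containing HUVEC and MSC stromal cells.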

[1] = curve of first compound, second compound 0.1 µM
[2] = curve of first compound, second compound 0.316 µM
[3] = curve of first compound, second compound 1 µM
[4] = curve of first compound, second compound 3.16 µM
[5] = curve of first compound, second compound 10 µM
[6] = second compound 0.1 µM, first compound 0.0316 µM
[7] = second compound 0.1 µM, first compound 0.1 µM
[8] = second compound 0.1 µM, first compound 0.316 µM
[9] = second compound 0.1 µM, first compound 1 µM
[10] = second compound 0.1 µM, first compound 3.16 µM
[11] = second compound 0.1 µM, first compound 10 µM
[12] = second compound 0.316 µM, first compound 0.0316 µM
[13] = second compound 0.316 µM, first compound 0.1 µM
[14] = second compound 0.316 µM, first compound 0.316 µM
[15] = second compound 0.316 µM, first compound 1 µM
[16] = second compound 0.316 µM, first compound 3.16 µM
[17] = second compound 0.316 µM, first compound 10 µM
[18] = second compound 1 µM, first compound 0.0316 µM
[19] = second compound 1 µM, first compound 0.1 µM
[20] = second compound 1 µM, first compound 0.316 µM
[21] = second compound 1 µM, first compound 1 µM
[22] = second compound 1 µM, first compound 3.16 µM
[23] = second compound 1 µM, first compound 10 µM
[24] = second compound 3.16 µM, first compound 0.0316 µM
[25] = second compound 3.16 µM, first compound 0.1 µM
[26] = second compound 3.16 µM, first compound 0.316 µM
[27] = second compound 3.16 µM, first compound 1 µM
[28] = second compound 3.16 µM, first compound 3.16 µM
[29] = second compound 3.16 µM, first compound 10 µM
[30] = second compound 10 µM, first compound 0.0316 µM
[31] = second compound 10 µM, first compound 0.1 µM
[32] = second compound 10 µM, first compound 0.316 µM
[33] = second compound 10 µM, first compound 1 µM
[34] = second compound 10 µM, first compound 3.16 µM
[35] = second compound 10 µM, first compound 10 µM
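Note: spheroids exposed to agents for seven days before luminescence viability read.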
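Throughout, for viability, T/C: spheroids also contain HUVEC endothelial cells and human MSC stroma.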

Work on `Nc1ccn(C2OC(CO)C(O)C2(F)F)c(=O)n1` (centres undefined) + Cc1cncc(-c2nc(NCCc3c[nH]c4ccccc34)c3ncn(C(C)C)c3n2)c1 yielded a pIC50 [1] greater than 7.50, a pIC50 [2] greater than 7.50 and a pIC50 [3] greater than 7.50. It also gave a pIC50 [4] greater than 7.50, a pIC50 [5] greater than 7.50 and a viability, T/C [6] of 5.21%. For the same molecule, the viability, T/C [7] was 5.33%, the viability, T/C [8] was 4.29% and the viability, T/C [9] was 4.06%. It also gave a viability, T/C [10] of 3.79%, a viability, T/C [11] of 3.29% and a viability, T/C [12] of 5.26%. It also gave a viability, T/C [13] of 5.35%, a viability, T/C [14] of 4.46% and a viability, T/C [15] of 4.46%. It also gave a viability, T/C [16] of 3.84%, a viability, T/C [17] of 3.1% and a viability, T/C [18] of 5.67%. For the same molecule, the viability, T/C [19] was 5.73%, the viability, T/C [20] was 5.73% and the viability, T/C [21] was 4.6%. It also gave a viability, T/C [22] of 6.45%, a viability, T/C [23] of 3.8% and a viability, T/C [24] of 8.15%. For the same molecule, the viability, T/C [25] was 6.5%, the viability, T/C [26] was 5.64% and the viability, T/C [27] was 4.25%. For the same molecule, the viability, T/C [28] was 4.89%, the viability, T/C [29] was 3.39% and the viability, T/C [30] was 4.66%. It also gave a viability, T/C [31] of 3.51%, a viability, T/C [32] of 3.29% and a viability, T/C [33] of 4.08%. For the same molecule, the viability, T/C [34] was 2.99% and the viability, T/C [35] was 2.51%.
With `Nc1ccccc1NC(=O)c1ccc(CNC(=O)OCc2cccnc2)cc1` the viability, T/C (compound 0.0316 µM) was 86.3% and 118% and 87.5%, the viability, T/C (compound 0.1 µM) was 77.6% and 98.4% and 82.2% and the viability, T/C (compound 0.316 µM) was 65.7% and 89.3% and 84.6%. For the same molecule, the viability, T/C (compound 1 µM) was 48.9% and 69.2% and 44.6%, the viability, T/C (compound 3.16 µM) was 23.7% and 17.8% and 23.1% and the viability, T/C (compound 10 µM) was 5.19% and 7.03% and 7.04%. For the same molecule, the pIC50 (curve of compound) was 6.07 and 5.84 and 6.03.
For `CCc1c2c(nc3ccc(O)cc13)-c1cc3c(c(=O)n1C2)COC(=O)[C@]3(O)CC` + Cc1ccccc1N=Nc1ccc(NC(=O)c2ccnn2C)c(C)c1, the pIC50 [1] was 8.42, the pIC50 [2] was greater than 9.02 and the pIC50 [3] was greater than 9.02. For the same molecule, the pIC50 [4] was greater than 9.02, the pIC50 [5] was greater than 9.02 and the viability, T/C (second compound 0.1 µM, first compound 0.000949 µM) was 75.5%. It also gave a viability, T/C (second compound 0.1 µM, first compound 0.003 µM) of 57.2%, a viability, T/C (second compound 0.1 µM, first compound 0.00949 µM) of 22.3% and a viability, T/C (second compound 0.1 µM, first compound 0.03 µM) of 12.3%. It also gave a viability, T/C (second compound 0.1 µM, first compound 0.0949 µM) of 8.18%, a viability, T/C (second compound 0.1 µM, first compound 0.3 µM) of 7.18% and a viability, T/C (second compound 0.316 µM, first compound 0.000949 µM) of 44.2%. It also gave a viability, T/C (second compound 0.316 µM, first compound 0.003 µM) of 32.8%, a viability, T/C (second compound 0.316 µM, first compound 0.00949 µM) of 21% and a viability, T/C (second compound 0.316 µM, first compound 0.03 µM) of 9.78%. The viability, T/C (second compound 0.316 µM, first compound 0.0949 µM) was 7.84%, the viability, T/C (second compound 0.316 µM, first compound 0.3 µM) was 5.78% and the viability, T/C (second compound 1 µM, first compound 0.000949 µM) was 29.9%. For the same molecule, the viability, T/C (second compound 1 µM, first compound 0.003 µM) was 27.3%, the viability, T/C (second compound 1 µM, first compound 0.00949 µM) was 19.7% and the viability, T/C (second compound 1 µM, first compound 0.03 µM) was 10.3%. It also gave a viability, T/C (second compound 1 µM, first compound 0.0949 µM) of 7.94%, a viability, T/C (second compound 1 µM, first compound 0.3 µM) of 6.46% and a viability, T/C (second compound 3.16 µM, first compound 0.000949 µM) of 34.6%. It also gave a viability, T/C (second compound 3.16 µM, first compound 0.003 µM) of 33.5%, a viability, T/C (second compound 3.16 µM, first compound 0.00949 µM) of 15.8% and a viability, T/C (second compound 3.16 µM, first compound 0.03 µM) of 10%. It also gave a viability, T/C (second compound 3.16 µM, first compound 0.0949 µM) of 7.13%, a viability, T/C (second compound 3.16 µM, first compound 0.3 µM) of 6.47% and a viability, T/C (second compound 10 µM, first compound 0.000949 µM) of 37.7%. For the same molecule, the viability, T/C (second compound 10 µM, first compound 0.003 µM) was 27.6%, the viability, T/C (second compound 10 µM, first compound 0.00949 µM) was 15.2% and the viability, T/C (second compound 10 µM, first compound 0.03 µM) was 10.4%. For the same molecule, the viability, T/C (second compound 10 µM, first compound 0.0949 µM) was 7.83% and the viability, T/C (second compound 10 µM, first compound 0.3 µM) was 6.4%.
With `CC[C@@]1(O)C(=O)OCc2c1cc1n(c2=O)Cc2cc3c(CN(C)C)c(O)ccc3nc2-1` + Cc1ccccc1N=Nc1ccc(NC(=O)c2ccnn2C)c(C)c1 the pIC50 [1] was 7.78, the pIC50 [2] was 7.95 and the pIC50 [3] was 7.87. For the same molecule, the pIC50 [4] was 8.08, the pIC50 [5] was 8.21 and the viability, T/C (second compound 0.1 µM, first compound 0.000316 µM) was 116%. It also gave a viability, T/C (second compound 0.1 µM, first compound 0.001 µM) of 101%, a viability, T/C (second compound 0.1 µM, first compound 0.00316 µM) of 112% and a viability, T/C (second compound 0.1 µM, first compound 0.01 µM) of 65.9%. It also gave a viability, T/C [6] of 29.3%, a viability, T/C [7] of 13% and a viability, T/C (second compound 0.316 µM, first compound 0.000316 µM) of 95%. For the same molecule, the viability, T/C (second compound 0.316 µM, first compound 0.001 µM) was 104%, the viability, T/C (second compound 0.316 µM, first compound 0.00316 µM) was 98.5% and the viability, T/C (second compound 0.316 µM, first compound 0.01 µM) was 52.8%. It also gave a viability, T/C [12] of 25.5%, a viability, T/C [13] of 17% and a viability, T/C (second compound 1 µM, first compound 0.000316 µM) of 130%. It also gave a viability, T/C (second compound 1 µM, first compound 0.001 µM) of 76.9%, a viability, T/C (second compound 1 µM, first compound 0.00316 µM) of 98% and a viability, T/C (second compound 1 µM, first compound 0.01 µM) of 57.3%. The viability, T/C [18] was 22.5%, the viability, T/C [19] was 17.2% and the viability, T/C (second compound 3.16 µM, first compound 0.000316 µM) was 64.5%. It also gave a viability, T/C (second compound 3.16 µM, first compound 0.001 µM) of 63.3%, a viability, T/C (second compound 3.16 µM, first compound 0.00316 µM) of 79.1% and a viability, T/C (second compound 3.16 µM, first compound 0.01 µM) of 46.5%. It also gave a viability, T/C [24] of 19.1%, a viability, T/C [25] of 15.4% and a viability, T/C (second compound 10 µM, first compound 0.000316 µM) of 66.8%. It also gave a viability, T/C (second compound 10 µM, first compound 0.001 µM) of 65.1%, a viability, T/C (second compound 10 µM, first compound 0.00316 µM) of 68.7% and a viability, T/C (second compound 10 µM, first compound 0.01 µM) of 38.2%. For the same molecule, the viability, T/C [30] was 22.2% and the viability, T/C [31] was 17.5%.
`O=C(c1cc(Cc2n[nH]c(=O)c3ccccc23)ccc1F)N1CCN(C(=O)C2CC2)CC1` + Cc1cncc(-c2nc(NCCc3c[nH]c4ccccc34)c3ncn(C(C)C)c3n2)c1 gave a pIC50 [1] of less than 5.00, a pIC50 [2] of less than 5.00 and a pIC50 [3] of less than 5.00. For the same molecule, the pIC50 [4] was greater than 7.50, the pIC50 [5] was greater than 7.50 and the viability, T/C [6] was 75.7%. It also gave a viability, T/C [7] of 91.6%, a viability, T/C [8] of 98.3% and a viability, T/C [9] of 89.9%. It also gave a viability, T/C [10] of 75.2%, a viability, T/C [11] of 58.8% and a viability, T/C [12] of 94.8%. It also gave a viability, T/C [13] of 102%, a viability, T/C [14] of 99.4% and a viability, T/C [15] of 82.3%. It also gave a viability, T/C [16] of 74.7%, a viability, T/C [17] of 64.4% and a viability, T/C [18] of 81.7%. It also gave a viability, T/C [19] of 86.7%, a viability, T/C [20] of 84.1% and a viability, T/C [21] of 67.2%. The viability, T/C [22] was 75.5%, the viability, T/C [23] was 65.1% and the viability, T/C [24] was 17.7%. The viability, T/C [25] was 19%, the viability, T/C [26] was 14.9% and the viability, T/C [27] was 12.7%. It also gave a viability, T/C [28] of 15%, a viability, T/C [29] of 13.9% and a viability, T/C [30] of 1.12%. For the same molecule, the viability, T/C [31] was 1.3%, the viability, T/C [32] was 0.99% and the viability, T/C [33] was 1.23%. For the same molecule, the viability, T/C [34] was 1.33% and the viability, T/C [35] was 1.37%.
With `CC(C)c1c(-c2ccccc2)nc2c(C#N)c[nH]n2c1=O` the viability, T/C (compound 0.0316 µM) was 112% and 92.6% and 89.1%, the viability, T/C (compound 0.1 µM) was 106% and 83.2% and 76.1% and the viability, T/C (compound 0.316 µM) was 100% and 78.1% and 72%. The viability, T/C (compound 1 µM) was 103% and 77.8% and 82.3%, the viability, T/C (compound 3.16 µM) was 108% and 86.8% and 85.3% and the viability, T/C (compound 10 µM) was 91.6% and 86.8% and 79.7%. It also gave a pIC50 (curve of compound) of less than 5.00.
